Results reported in article PMC9773353 (ACS Omega, 2022).
Where “and” joins values, the source holds several entries; their conditions need not be identical. Identical values can stand only once.

How the values were obtained:
[1] = MTT cell viability assay, HEK-293 T normal cells; format: cell-based; conditions: human, HEK-293 T normal cells; for viability at 100 µM: % cell viability ± SD (HEK-293 T cells), 24–48 h incubation, MTT, vs untreated control
hCA XII = hCA XII (Homo sapiens, UniProt O43570); assay: Carbonic anhydrase inhibition assay; format: biochemical
hCA XII, sequence (O43570 25-354): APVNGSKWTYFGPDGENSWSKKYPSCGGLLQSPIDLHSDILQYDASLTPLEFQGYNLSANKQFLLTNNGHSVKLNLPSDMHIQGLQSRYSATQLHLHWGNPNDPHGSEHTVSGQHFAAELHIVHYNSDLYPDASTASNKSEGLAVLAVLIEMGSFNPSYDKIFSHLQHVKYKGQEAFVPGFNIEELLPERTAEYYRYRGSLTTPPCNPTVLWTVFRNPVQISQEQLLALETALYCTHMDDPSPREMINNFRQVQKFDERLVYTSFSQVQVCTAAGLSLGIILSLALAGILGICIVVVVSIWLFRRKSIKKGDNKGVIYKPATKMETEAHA

hCA II = hCA II (Homo sapiens, UniProt P00918); assay: Carbonic anhydrase inhibition assay; format: biochemical; conditions: for IC50: IC50 ± SEM hCA II, mean of three independent experiments; for inhibition of hCA-II in words: text grading of Table 4 results
hCA IX = hCA IX (Homo sapiens, UniProt Q16790); assay: biochemical
HEK-293 T normal cells = assay: MTT cell viability assay, HEK-293 T normal cells; format: cell-based; conditions: 100 μM, 24–48 h incubation, MTT; for % cell viability ± SD (HEK-293 T cells): vs untreated control
BHK-21 normal cells = assay: MTT cell viability assay, BHK-21 normal cells; format: cell-based; conditions: 100 μM, 24–48 h incubation; for % cell viability ± SD (BHK-21 cells): vs untreated control

IC50 (hCA XII) [nM]	IC50 (hCA II)	inhibition of hCA-II in words (hCA II)	IC50 (hCA IX) [nM]	Compound	cytotoxicity at 100 µM [1] [%]	viability at 100 µM [1] [%]	% cytotoxicity ± SD (HEK-293 T cells) (HEK-293 T normal cells) [%]	% cell viability ± SD (HEK-293 T cells) (HEK-293 T normal cells) [%]	% cytotoxicity ± SD (BHK-21 cells) (BHK-21 normal cells) [%]	% cell viability ± SD (BHK-21 cells) (BHK-21 normal cells) [%]
	380 ± 10 nM		9760 ± 1030	Cc1ccc(C(=O)NC(=S)Nc2ccc(C(=O)O)cc2)c(C)c1 [Compound 25, 4-(3-(2,4-Dimethylbenzoyl)thioureido) Benzoic Acid]	2 ± 0.02	> 90				
4290 ± 240	260 ± 30 nM		4930 ± 1830	COc1ccc(C(=O)NC(=S)Nc2cc([N+](=O)[O-])ccc2Cl)cc1OC [Compound 22, N-((2-Chloro-5-nitrophenyl)carbamothioyl)-3,4-dimethoxybenzamide]	9 ± 0.05	> 90				
		did not show any inhibition		N-((3-Bromo-5-(trifluoromethyl) phenyl) carbamothioyl)-3,4-dimethoxybenzamide [Compound 23]			26 ± 0.06		65.0 ± 0.06	
9900 ± 660	1240 ± 960 nM		1250 ± 20	Cc1cc(C)cc(C(=O)NC(=S)Nc2ccccc2O)c1 [Compound 24, N-((2-Hydroxyphenyl)carbamothioyl)-3,5-dimethylbenzamide]	18 ± 0.03	81 ± 0.1				
2020 ± 280	4450 ± 110 nM	moderate inhibition	1280 ± 90	Cc1cc(C)cc(C(=O)NC(=S)Nc2cc(Cl)c(O)c(Cl)c2)c1 [Compound 26, N-((3,5-Dichloro-4-hydroxyphenyl)carbamothioyl)-3,5-dimethylbenzamide]	2 ± 0.06	> 90				

Continued, compound first:

Compound	IC50 (hCA XII) [nM]	IC50 (hCA II)	inhibition of hCA-II in words (hCA II)	IC50 (hCA IX) [nM]	cytotoxicity at 100 µM [1] [%]	viability at 100 µM [1] [%]	% cytotoxicity ± SD (HEK-293 T cells) (HEK-293 T normal cells) [%]	% cell viability ± SD (HEK-293 T cells) (HEK-293 T normal cells) [%]	% cytotoxicity ± SD (BHK-21 cells) (BHK-21 normal cells) [%]	% cell viability ± SD (BHK-21 cells) (BHK-21 normal cells) [%]
COc1ccc(C(=O)NC(=S)Nc2ccc(C(=O)O)cc2)cc1OC [Compound 18, 4-(3-(3,4-Dimethoxybenzoyl)thioureido) Benzoic Acid]	1680 ± 150	4170 ± 290 nM	moderate inhibition	210 ± 90	24 ± 0.07	75				
COc1ccc(C(=O)Nc2cc(Cl)c(O)c(Cl)c2)cc1OC [Compound 12, N-(3,5-Dichloro-4-hydroxyphenyl)-3,4-dimethoxybenzamide]	580 ± 60		did not show any inhibition		26.6 ± 0.06	73 ± 0.1				
3-(3-(3,4-Dimethoxybenzoyl) thioureido) Benzoic Acid [Compound 21]							13 ± 0.05	86 ± 0.6	51.5 ± 0.06	48 ± 0.1
COc1ccc(C(=O)NC(=S)Nc2c(Cl)cc([N+](=O)[O-])cc2Br)cc1OC [Compound 19, N-((2-Bromo-6-chloro-4-nitrophenyl)carbamothioyl)-3,4-dimethoxybenzamide]		725 nM and 720 nM		1010 ± 50	50 ± 0.08	49 ± 0.6				
COc1ccc(C(=O)NC(=S)Nc2cc(Cl)c(S(N)(=O)=O)cc2S(N)(=O)=O)cc1OC [Compound 17, N-((5-Chloro-2,4-disulfamoylphenyl)carbamothioyl)-3,4-dimethoxybenzamide]		11500 ± 160 nM	moderate inhibition	1710 ± 650	3 ± 0.04	97 ± 0.3				
Cc1cc(C)cc(C(=O)Nc2cc(Cl)c(S(N)(=O)=O)cc2S(N)(=O)=O)c1 [Compound 11, N-(5-Chloro-2,4-disulfamoylphenyl)-3,5-dimethylbenzamide]	2990 ± 320	1190 nM and 1180 nM		170 ± 50	27 ± 0.06	72 ± 0.6				
Cc1ccc(C(=O)Nc2cccc(C(=O)O)c2)c(C)c1 [Compound 13, 3-(2,4-Dimethylbenzamido) Benzoic Acid]				10400 ± 1450	14 ± 0.09	86 ± 0.6				
Cc1cc(C)cc(C(=O)Nc2cc(Br)cc(C(F)(F)F)c2)c1 [Compound 15, N-(3-Bromo-5-(trifluoromethyl)phenyl)-3,5-dimethylbenzamide]	1050 ± 110	1930 ± 150 nM			18 ± 0.6	82 ± 0.6				
N-((2-Hydroxyphenyl) carbamothioyl)-3,4-dimethoxybenzamide [Compound 20]			did not show any inhibition				13 ± 0.03	86 ± 0.07	54.6 ± 0.02	45 ± 0.09
Cc1cc(C)cc(C(=O)Nc2cc([N+](=O)[O-])ccc2Cl)c1 [Compound 14, N-(2-Chloro-5-nitrophenyl)-3,5-dimethylbenzamide]	950 ± 80	6490 ± 630 nM	moderate inhibition		15 ± 0.4	85 ± 0.1				
